One compound from ChEMBL document CHEMBL3044870, “Effect of clomazone on various market classes of dry beans” (Crop Prot, 2007) can be followed below.

Format in all cases: organism-based
Conditions in all cases: in vivo, other

Data set [1] relates to Phaseolus vulgaris. As to the kind of experiment: Phytotoxicity against Phaseolus vulgaris (white beans) assessed as visual crop injury at 2232 g a.i./ha applied pre-emergence 1 to 2 days post-planting measured on day 14 post-emergence relative to control.
Data set [2] deals with Phaseolus vulgaris. Kind of data set: Phytotoxicity against Phaseolus vulgaris (yellow eye beans) assessed as shoot dry weight at 2232 g a.i./ha applied pre-emergence 1 to 2 days post-planting measured on day 42 post-emergence (reference value: 162 g/m).
Data set [3] concerns Phaseolus vulgaris. Kind of data set: Phytotoxicity against Phaseolus vulgaris (cranberry beans) assessed as shoot dry weight at 2232 g a.i./ha applied pre-emergence 1 to 2 days post-planting measured on day 42 post-emergence (reference value: 161 g/m).
The subject of data set [4] is Phaseolus vulgaris. As to the kind of experiment: Phytotoxicity against Phaseolus vulgaris (brown beans) assessed as shoot dry weight at 2232 g a.i./ha applied pre-emergence 1 to 2 days post-planting measured on day 42 post-emergence (reference value: 149 g/m).
In data set [5] the test system is Phaseolus vulgaris. As to the kind of experiment: Phytotoxicity against Phaseolus vulgaris (yellow eye beans) assessed as plant height at 1116 g a.i./ha applied pre-emergence 1 to 2 days post-planting measured on day 28 post-emergence (reference value: 38 cm).
For data set [6], the system named is Phaseolus vulgaris. Kind of data set: Phytotoxicity against Phaseolus vulgaris (cranberry beans) assessed as plant height at 2232 g a.i./ha applied pre-emergence 1 to 2 days post-planting measured on day 28 post-emergence (reference value: 37 cm).
Data set [7] has as its system Phaseolus vulgaris. Kind of data set: Phytotoxicity against Phaseolus vulgaris (black beans) assessed as plant height at 2232 g a.i./ha applied pre-emergence 1 to 2 days post-planting measured on day 28 post-emergence (reference value: 34 cm).

As to `CC1(C)CON(Cc2ccccc2Cl)C1=O` [CLOMAZONE], the Activity came to 6% in the data set with Phaseolus vulgaris [1]; 130 g/m with Phaseolus vulgaris [2]; 137 g/m in the data set with Phaseolus vulgaris [3]; 143 g/m in the data set on Phaseolus vulgaris [4]; 36 cm in the data set on Phaseolus vulgaris [5]; 32 cm in the data set with Phaseolus vulgaris [6]. Moreover, the Activity in the data set on Phaseolus vulgaris [7] was 30 cm.
